In brackets after ≈: the same amount, converted by molar mass.
Experiments:
Type in all cases: functional
[1] = tested on: Candida albicans; assay: Antifungal activity against Candida albicans assessed as inhibition of fungal growth measured after 48 hrs by CLSI based agar dilution method
[2] = tested on: Candida parapsilosis; assay: Antifungal activity against Candida parapsilosis assessed as inhibition of fungal growth measured after 48 hrs by CLSI based agar dilution method; conditions: Lodderomyces parapsilosis
[3] = tested on: Candida tropicalis; assay: Antifungal activity against Candida tropicalis assessed as inhibition of fungal growth measured after 48 hrs by CLSI based agar dilution method
[4] = tested on: Cryptococcus neoformans; assay: Antifungal activity against Cryptococcus neoformans ATCC 32609 assessed as inhibition of fungal growth measured after 48 hrs by CLSI based agar dilution method
[5] = tested on: Pichia kudriavzevii; assay: Antifungal activity against Candida krusei assessed as inhibition of fungal growth measured after 48 hrs by CLSI based agar dilution method
[6] = tested on: Pichia kudriavzevii; assay: Antifungal activity against Candida krusei ATCC 6258 assessed as inhibition of fungal growth measured after 48 hrs by CLSI based agar dilution method

SMILES	MIC [1] [µg/mL]	MIC [2] [µg/mL]	MIC [3] [µg/mL]	MIC [4] [µg/mL]	MIC [5] [µg/mL]	MIC [6] [µg/mL]
C[C@@H]1[C@H](O)[C@@H](C)/C=C/C=C/C=C/C=C/C=C/C=C/C=C/[C@H](O[C@@H]2O[C@H](C)[C@@H](O)[C@H](NC(=O)CCN)[C@@H]2O)C[C@@H]2O[C@](O)(C[C@@H](O)C[C@@H](O)[C@H](O)CC[C@@H](O)C[C@@H](O)CC(=O)O[C@H]1C)C[C@H](O)[C@H]2C(=O)NCCN	0.125 (≈ 0.121 µM)	0.125 (≈ 0.121 µM)	0.25 (≈ 0.241 µM)	0.25 (≈ 0.241 µM)	0.5 (≈ 0.482 µM)	1 (≈ 0.964 µM)
CNCC(=O)N[C@@H]1[C@H](O)[C@H](O[C@H]2/C=C/C=C/C=C/C=C/C=C/C=C/C=C/[C@H](C)[C@@H](O)[C@@H](C)[C@H](C)OC(=O)C[C@H](O)C[C@H](O)CC[C@@H](O)[C@H](O)C[C@H](O)C[C@]3(O)C[C@H](O)[C@@H](C(=O)N4CCN(C(=O)COCCOC)CC4)[C@H](C2)O3)O[C@H](C)[C@H]1O	4 (≈ 3.39 µM)	4 (≈ 3.39 µM)	16 (≈ 13.6 µM)	4 (≈ 3.39 µM)	8 (≈ 6.78 µM)	16 (≈ 13.6 µM)
C[C@@H]1[C@H](O)[C@@H](C)/C=C/C=C/C=C/C=C/C=C/C=C/C=C/[C@H](O[C@@H]2O[C@H](C)[C@@H](O)[C@H](NC(=O)COCCN)[C@@H]2O)C[C@@H]2O[C@](O)(C[C@@H](O)C[C@@H](O)[C@H](O)CC[C@@H](O)C[C@@H](O)CC(=O)O[C@H]1C)C[C@H](O)[C@H]2C(=O)N1CCN(CCO)CC1	0.5 (≈ 0.44 µM)	2 (≈ 1.76 µM)	0.25 (≈ 0.22 µM)	0.5 (≈ 0.44 µM)	2 (≈ 1.76 µM)	16 (≈ 14.1 µM)
CNCC(=O)N[C@@H]1[C@H](O)[C@H](O[C@H]2/C=C/C=C/C=C/C=C/C=C/C=C/C=C/[C@H](C)[C@@H](O)[C@@H](C)[C@H](C)OC(=O)C[C@H](O)C[C@H](O)CC[C@@H](O)[C@H](O)C[C@H](O)C[C@]3(O)C[C@H](O)[C@@H](C(=O)N4CCN(C(=O)c5ccncn5)CC4)[C@H](C2)O3)O[C@H](C)[C@H]1O	1 (≈ 0.855 µM)	16 (≈ 13.7 µM)	4 (≈ 3.42 µM)	1 (≈ 0.855 µM)	1 (≈ 0.855 µM)	16 (≈ 13.7 µM)
C[C@@H]1[C@H](O)[C@@H](C)/C=C/C=C/C=C/C=C/C=C/C=C/C=C/[C@H](O[C@@H]2O[C@H](C)[C@@H](O)[C@H](NC(=O)CN)[C@@H]2O)C[C@@H]2O[C@](O)(C[C@@H](O)C[C@@H](O)[C@H](O)CC[C@@H](O)C[C@@H](O)CC(=O)O[C@H]1C)C[C@H](O)[C@H]2C(=O)NCCCN(C)C	1 (≈ 0.939 µM)	8 (≈ 7.51 µM)	16 (≈ 15 µM)	2 (≈ 1.88 µM)	8 (≈ 7.51 µM)	32 (≈ 30 µM)
CNCC(=O)N[C@@H]1[C@H](O)[C@H](O[C@H]2/C=C/C=C/C=C/C=C/C=C/C=C/C=C/[C@H](C)[C@@H](O)[C@@H](C)[C@H](C)OC(=O)C[C@H](O)C[C@H](O)CC[C@@H](O)[C@H](O)C[C@H](O)C[C@]3(O)C[C@H](O)[C@@H](C(=O)N4CCN(C(C)=O)CC4)[C@H](C2)O3)O[C@H](C)[C@H]1O	2 (≈ 1.81 µM)	4 (≈ 3.62 µM)	4 (≈ 3.62 µM)	2 (≈ 1.81 µM)	4 (≈ 3.62 µM)	8 (≈ 7.24 µM)
CNCC(=O)N[C@@H]1[C@H](O)[C@H](O[C@H]2/C=C/C=C/C=C/C=C/C=C/C=C/C=C/[C@H](C)[C@@H](O)[C@@H](C)[C@H](C)OC(=O)C[C@H](O)C[C@H](O)CC[C@@H](O)[C@H](O)C[C@H](O)C[C@]3(O)C[C@H](O)[C@@H](C(=O)NNC(=O)OC)[C@H](C2)O3)O[C@H](C)[C@H]1O	0.125 (≈ 0.117 µM)	4 (≈ 3.75 µM)	1 (≈ 0.937 µM)	0.5 (≈ 0.468 µM)	0.125 (≈ 0.117 µM)	2 (≈ 1.87 µM)
CNCC(=O)N[C@@H]1[C@H](O)[C@H](O[C@H]2/C=C/C=C/C=C/C=C/C=C/C=C/C=C/[C@H](C)[C@@H](O)[C@@H](C)[C@H](C)OC(=O)C[C@H](O)C[C@H](O)CC[C@@H](O)[C@H](O)C[C@H](O)C[C@]3(O)C[C@H](O)[C@@H](C(=O)NNC(C)=O)[C@H](C2)O3)O[C@H](C)[C@H]1O	0.125 (≈ 0.119 µM)	2 (≈ 1.9 µM)	4 (≈ 3.81 µM)	0.125 (≈ 0.119 µM)	0.5 (≈ 0.476 µM)	4 (≈ 3.81 µM)
CC(C)C(=O)NNC(=O)[C@H]1[C@@H]2C[C@@H](O[C@@H]3O[C@H](C)[C@@H](O)[C@H](N)[C@@H]3O)/C=C/C=C/C=C/C=C/C=C/C=C/C=C/[C@H](C)[C@@H](O)[C@@H](C)[C@H](C)OC(=O)C[C@H](O)C[C@H](O)CC[C@@H](O)[C@H](O)C[C@H](O)C[C@](O)(C[C@@H]1O)O2	0.03 (≈ 0.0298 µM)	1 (≈ 0.992 µM)	0.5 (≈ 0.496 µM)	0.06 (≈ 0.0595 µM)	0.5 (≈ 0.496 µM)	1 (≈ 0.992 µM)
C[C@@H]1[C@H](O)[C@@H](C)/C=C/C=C/C=C/C=C/C=C/C=C/C=C/[C@H](O[C@@H]2O[C@H](C)[C@@H](O)[C@H](NC(=O)CN)[C@@H]2O)C[C@@H]2O[C@](O)(C[C@@H](O)C[C@@H](O)[C@H](O)CC[C@@H](O)C[C@@H](O)CC(=O)O[C@H]1C)C[C@H](O)[C@H]2C(=O)NCCN(C)C	1 (≈ 0.951 µM)	1 (≈ 0.951 µM)	2 (≈ 1.9 µM)	0.5 (≈ 0.476 µM)	1 (≈ 0.951 µM)	16 (≈ 15.2 µM)
CCC(=O)NNC(=O)[C@H]1[C@@H]2C[C@@H](O[C@@H]3O[C@H](C)[C@@H](O)[C@H](N)[C@@H]3O)/C=C/C=C/C=C/C=C/C=C/C=C/C=C/[C@H](C)[C@@H](O)[C@@H](C)[C@H](C)OC(=O)C[C@H](O)C[C@H](O)CC[C@@H](O)[C@H](O)C[C@H](O)C[C@](O)(C[C@@H]1O)O2	0.25 (≈ 0.251 µM)	1 (≈ 1.01 µM)	0.5 (≈ 0.503 µM)	0.03 (≈ 0.0302 µM)	0.5 (≈ 0.503 µM)	0.5 (≈ 0.503 µM)
C[C@@H]1[C@H](O)[C@@H](C)/C=C/C=C/C=C/C=C/C=C/C=C/C=C/[C@H](O[C@@H]2O[C@H](C)[C@@H](O)[C@H](N)[C@@H]2O)C[C@@H]2O[C@](O)(C[C@@H](O)C[C@@H](O)[C@H](O)CC[C@@H](O)C[C@@H](O)CC(=O)O[C@H]1C)C[C@H](O)[C@H]2C(=O)NNC(=O)c1ccc(Cl)cc1	4 (≈ 3.72 µM)	16 (≈ 14.9 µM)	8 (≈ 7.43 µM)	2 (≈ 1.86 µM)	8 (≈ 7.43 µM)	16 (≈ 14.9 µM)
CNCC(=O)N[C@@H]1[C@H](O)[C@H](O[C@H]2/C=C/C=C/C=C/C=C/C=C/C=C/C=C/[C@H](C)[C@@H](O)[C@@H](C)[C@H](C)OC(=O)C[C@H](O)C[C@H](O)CC[C@@H](O)[C@H](O)C[C@H](O)C[C@]3(O)C[C@H](O)[C@@H](C(=O)N4CCN(CCN(C)C)CC4)[C@H](C2)O3)O[C@H](C)[C@H]1O	1 (≈ 0.882 µM)	1 (≈ 0.882 µM)	1 (≈ 0.882 µM)	1 (≈ 0.882 µM)	2 (≈ 1.76 µM)	4 (≈ 3.53 µM)
C[C@@H]1[C@H](O)[C@@H](C)/C=C/C=C/C=C/C=C/C=C/C=C/C=C/[C@H](O[C@@H]2O[C@H](C)[C@@H](O)[C@H](NC(=O)CN)[C@@H]2O)C[C@@H]2O[C@](O)(C[C@@H](O)C[C@@H](O)[C@H](O)CC[C@@H](O)C[C@@H](O)CC(=O)O[C@H]1C)C[C@H](O)[C@H]2C(=O)NCCO	1 (≈ 0.976 µM)	4 (≈ 3.91 µM)	4 (≈ 3.91 µM)	2 (≈ 1.95 µM)	2 (≈ 1.95 µM)	4 (≈ 3.91 µM)
C[C@@H]1[C@H](O)[C@@H](C)/C=C/C=C/C=C/C=C/C=C/C=C/C=C/[C@H](O[C@@H]2O[C@H](C)[C@@H](O)[C@H](NC(=O)CCN)[C@@H]2O)C[C@@H]2O[C@](O)(C[C@@H](O)C[C@@H](O)[C@H](O)CC[C@@H](O)C[C@@H](O)CC(=O)O[C@H]1C)C[C@H](O)[C@H]2C(=O)NCCO	2 (≈ 1.93 µM)	8 (≈ 7.71 µM)	8 (≈ 7.71 µM)	2 (≈ 1.93 µM)	2 (≈ 1.93 µM)	4 (≈ 3.85 µM)
